Measurements published in patent US20210222225A1, “Medium for Disk Diffusion Method to Evaluate Antibiotic Sensitivity” (priority 2018, published 2021).

Key:
[1] = system: ABA A5_R; experiment: Colistin disk diffusion, guanidine hydrochloride medium, A5_R; assay type: cell-based, Acinetobacter baumannii; conditions: 30% agar
Experimental: (§1) A concentration of agar particles (BD Diagnostic, Sparks, Md., USA) in Mueller-Hinton broth medium (BD Diagnostic) was adjusted to 5.1 g/L, which is 30% of 17 g/L, and guanidine hydrochloride was added to a concentration of 500 μg/ml, 50 μg/ml, or 5 μg/ml. Then, solidification was performed. On a surface of each medium thus prepared was evenly inoculated each of colistin-susceptible (S) or -resistant (R) Acinetobacter baumannii (ABA) strain, colistin-susceptible (S) or -resistant (R) Klebsiella pnemoniae (KPN) strain, and colistin-susceptible (S) or -resistant (R) Pseudomonas aeruginosa (PAE) strain, and a colistin disk was placed thereon. Then, pictures of a growth inhibition zone, which had been formed clear, around the disk were taken for each strain, and the results are illustrated in FIGS. 8 to 10.

[2] = system: PAE P1401_S; experiment: Colistin disk diffusion, guanidine hydrochloride medium, P1401_S; assay type: cell-based, Pseudomonas aeruginosa; conditions: 30% agar
Experimental: as §1

[3] = system: colistin-resistant (R) Acinetobacter calcoaceticus-baumannii complex (ACB) strain; experiment: Colistin disk diffusion on modified Mueller-Hinton agar, ACB-R; assay type: cell-based
Experimental: To each MHA thus modified was added protamine (Sigma-Aldrich, St Louis, Mo., USA) at a concentration of 100 μg/ml, and solidification was performed. Then, on a surface of the medium was evenly inoculated each of colistin-susceptible (S) or -resistant (R) Acinetobacter calcoaceticus-baumannii complex (ACB) strain, Pseudomonas aeruginosa ATCC27853 strain, Escherichia coli ATCC25922 strain, and mcr-1-harboring Enterobacter aerogenes strain, and a colistin disk was placed thereon. Subsequently, a diameter of a growth inhibition zone (colistin inhibition zone), which had been formed clear by diffusion of colistin to the agar around the colistin disk, was measured.
As in Example 1, a concentration of agar particles (BD Diagnostic, Sparks, Md., USA) in Mueller-Hinton broth medium (BD Diagnostic) was adjusted to 17 g/L or 5.1 g/L that is 30% of 17 g/L. To select a concentration of protamine, which can enhance diffusion of colistin from a disk without interfering with bacterial growth, while using the protamine at various concentrations, protamine (Sigma-Aldrich, St Louis, Mo., USA) was added to the medium at concentrations of 1 mg/ml, 700 μg/ml, 400 μg/ml, 300 μg/ml, 200 μg/ml, 150 μg/ml, 100 μg/ml, and 50 μg/ml. Each medium thus modified was solidified. Then, on a surface of each medium was evenly inoculated each of colistin-susceptible (S) or -resistant (R) Acinetobacter calcoaceticus-baumannii complex (ACB) strain, Pseudomonas aeruginosa ATCC27853 strain, and mcr-1-harboring Enterobacter aerogenes strain, and a colistin disk was placed thereon. Then, it was determined whether each strain was grown, and a diameter of a growth inhibition zone, which had been formed around the disk, was measured.

[4] = guanidine hydrochloride 5 μg/ml
[5] = guanidine hydrochloride 50 μg/ml
[6] = guanidine hydrochloride 500 μg/ml

colistin
16 mm: Disk diffusion (mm) [2, 4] | Disk diffusion (mm) [2, 6]
12 mm: Diameter (mm) of colistin inhibition zone ([3]; 80% agar, protamine 100 μg/ml) | Diameter (mm) of colistin inhibition zone ([3]; 90% agar, protamine 100 μg/ml) | Disk diffusion (mm) ([3]; 100% agar, protamine 100 μg/ml) | Disk diffusion (mm) ([3]; 100% agar, protamine 200 μg/ml) | Disk diffusion (mm) ([3]; 100% agar, protamine 300 μg/ml)
15 mm: Disk diffusion (mm) [2, 5]
11 mm: Diameter (mm) of colistin inhibition zone ([3]; 30% agar, protamine 100 μg/ml) | Disk diffusion (mm) ([3]; 30% agar, protamine 100 μg/ml) | Diameter (mm) of colistin inhibition zone ([3]; 40% agar, protamine 100 μg/ml) | Diameter (mm) of colistin inhibition zone ([3]; 70% agar, protamine 100 μg/ml) | Diameter (mm) of colistin inhibition zone ([3]; 100% agar, protamine 100 μg/ml)
10 mm: Disk diffusion (mm) [1, 4] | Disk diffusion (mm) [1, 5] | Disk diffusion (mm) [1, 6] | Disk diffusion (mm) ([3]; 30% agar, protamine 150 μg/ml) | Diameter (mm) of colistin inhibition zone ([3]; 50% agar, protamine 100 μg/ml)
13 mm: Disk diffusion (mm) ([3]; 30% agar, protamine 50 μg/ml) | Diameter (mm) of colistin inhibition zone ([3]; 60% agar, protamine 100 μg/ml) | Disk diffusion (mm) ([3]; 100% agar, protamine 50 μg/ml) | Disk diffusion (mm) ([3]; 100% agar, protamine 150 μg/ml) | Disk diffusion (mm) ([3]; 100% agar, protamine 400 μg/ml)
6 mm: Disk diffusion (mm) ([3]; 30% agar, protamine 300 μg/ml) | Disk diffusion (mm) ([3]; 30% agar, protamine 400 μg/ml) | Disk diffusion (mm) ([3]; 30% agar, protamine 700 μg/ml) | Disk diffusion (mm) ([3]; 30% agar, protamine 1,000 μg/ml) | Disk diffusion (mm) ([3]; 100% agar, protamine 700 μg/ml) | Disk diffusion (mm) ([3]; 100% agar, protamine 1,000 μg/ml)
8 mm: Disk diffusion (mm) ([3]; 30% agar, protamine 200 μg/ml)
